Experimental data published in patent publication US20230092389A1, “UNIT DOSES, AEROSOLS, KITS, AND METHODS FOR TREATING HEART CONDITIONS BY PULMONARY ADMINISTRATION” (InCarda Therapeutics, Inc., priority 2017, published 2023).
Where two headings read alike, the source gives them in different places.

What was measured:
healthy volunteers = settings: in vivo
Excerpt: 3 cohorts of subjects, in total 34 healthy adult volunteers, were recruited for Part A study.
Part B was an open label non-randomized crossover in a cohort of 6 evaluable healthy adult volunteers.
Adverse events were monitored and recorded.

[1] = IV 2 mg/Kg, cited from earlier work
[2] = n = 3, Mean ± SEM, package insert

## O=C(NCC1CCCCN1)c1cc(OCC(F)(F)F)ccc1OCC(F)(F)F (stereo not drawn) [flecainide]
Healthy volunteers; both, human
  Adverse Event: Cough: 1
  Adverse Event: Lightheadedness: 1
  Number of Moderate or Severe TEAEs: 3
  Number of Study Drug Related TEAEs: 43
  Number of Study Drug Related, Moderate or Severe TEAEs: 2
  Number of TEAEs: 59
  Subjects with at least one Moderate or Severe TEAE: 2 (8) n (%)
  Subjects with at least one Study Drug Related TEAE: 22 (80) n (%)
  Subjects with at least one Study Drug Related, Moderate or Severe TEAE: 1 (4) n (%)
  Subjects with at least one TEAE: 22 (88) n (%)
  TEAE: Catheter site pain: 2 (8) [2] n (%) [events]
  TEAE: Cough: 3 (12) [4] n (%) [events]
  TEAE: Diarrhoea: 2 (8) [2] n (%) [events]
  TEAE: Dizziness: 3 (12) [3] n (%) [events]
  TEAE: Dry mouth: 3 (12) [3] n (%) [events]
  TEAE: Dysgeusia: 2 (8) [2] n (%) [events]
  TEAE: Dyspnoea: 6 (24) [6] n (%) [events]
  TEAE: Gastrointestinal disorders: 8 (32) [11] n (%) [events]
  TEAE: General disorders and administration site conditions: 3 (12) [4] n (%) [events]
  TEAE: Headache: 4 (16) [5] n (%) [events]
  TEAE: Nervous system disorders: 8 (32) [11] n (%) [events]
  TEAE: Oropharyngeal discomfort: 11 (44) [11] n (%) [events]
  TEAE: Respiratory, thoracic and mediastinal disorders: 17 (68) [25] n (%) [events]
  duration of the majority of adverse events: 15 to 90 min
  subjects with study-drug related Cough: 12%
  subjects with study-drug related Dizziness: 12%
  subjects with study-drug related Dry mouth: 12%
  subjects with study-drug related Dysgeusia: 8%
  subjects with study-drug related Dyspnoea (shortness of breath): 16%
  subjects with study-drug related Headache: 8%
  subjects with study-drug related Oropharyngeal discomfort: 40%
Healthy volunteers; human
  average events per subject: 2
  probably study-drug related oropharyngeal discomfort (events): 4
  study-drug related paresthesia oral (events): 3
Healthy volunteers; human, 2 mg/kg
  TEAE: Hypoaesthesia oral: 1 (14) [1] n (%) [events]
  TEAE: Paraesthesia oral: 3 (43) [3] n (%) [events]
Healthy volunteers; human, iv
  average events per subject: 7
  severe and moderate AEs probably related to study drug: 1 severe and 2 moderate intensity AEs
  study-drug related application site coldness (occurrences): 2
  study-drug related dizziness (events): 6
  study-drug related headache (events): 5
  study-drug related peripheral coldness, palpitations, and chest discomfort, occurrences each: 2
  systolic BP in subject whose IV infusion was interrupted for hypotension: < 65 mmHg
Healthy volunteers; human, iv, 2 mg/kg
  Number of Moderate or Severe TEAEs: 4
  Number of Related TEAEs: 35
  Number of Related, Moderate or Severe TEAEs: 4
  Number of SAEs: 0
  Number of Subjects with at least one Moderate or Severe TEAE: 2 (29) n (%)
  Number of Subjects with at least one Related TEAE: 7 (100) n (%)
  Number of Subjects with at least one Related, Moderate or Severe TEAE: 2 (29) n (%)
  Number of Subjects with at least one SAE: 0 n (%)
  Number of Subjects with at least one TEAE: 7 (100) n (%)
  Number of Treatment-Emergent Adverse Events: 49
  TEAE: Application site coldness: 2 (29) [2] n (%) [events]
  TEAE: Catheter site pain: 2 (29) [2] n (%) [events]
  TEAE: Chest discomfort: 1 (14) [3] n (%) [events]
  TEAE: Dizziness: 6 (86) [6] n (%) [events]
  TEAE: Fatigue: 2 (29) [2] n (%) [events]
  TEAE: Gastrointestinal disorders: 5 (71) [6] n (%) [events]
  TEAE: General disorders and administration site conditions: 4 (57) [13] n (%) [events]
  TEAE: Headache: 5 (71) [6] n (%) [events]
  TEAE: Nervous system disorders: 7 (100) [13] n (%) [events]
  TEAE: Peripheral coldness: 2 (29) [3] n (%) [events]
  TEAE: Respiratory, thoracic and mediastinal disorders: 2 (29) [3] n (%) [events]
  TEAE: Vascular disorders: 3 (43) [4] n (%) [events]
  fewer TEAEs with IH than IV: 4 fold
Healthy volunteers; human, po
  remaining study-drug related events (cough, dysphonia, dyspnoea, oral hypoesthesia, chest discomfort): occurred once in 1 subject each
Healthy volunteers
  AEs occurring more frequently than with placebo: oropharyngeal discomfort, shortness of breath (dyspnoea), cough and dry mouth
  dose dependence of incidence of AEs: appears not to be dose-dependent
  intensity of TEAEs: mild in intensity
  serious adverse events: No serious adverse events were reported
  tolerability of inhalation: well tolerated, and no subject interrupted the inhalation
[1]; [2]
  AUClast: 4211 ± 456 ng·h/mL
  Cmax: 1644 ± 534 ng/mL
[1]; n = 3, package insert
  Tmax: 10.0 min
